Laboratory results taken from PMC12736008, “New Dimethylpyridine-3-Carboxamide Derivatives as MMP-13 Inhibitors with Anticancer Activity” (Molecules, 2025).

How the values were obtained:
[1] = target: T1, MMP-13 (Homo sapiens, UniProt P45452); assay: MMP-13 inhibitor screening assay kit (fluorometric); assay type: biochemical; conditions: single-point screening; tested compounds 1.8 to 4.6 µM
T1 construct: purchased Abcam ab139451
Experimental: The inhibitory activity of the designed compounds against MMP-13 was evaluated using a commercial fluorometric MMP-13 inhibitor assay kit (Abcam, Cambridge, UK), following the manufacturer’s protocol. Solutions of the tested compounds were prepared at concentrations ranging from 1.8 to 4.6 µM. N-isobutyl-N-(4-methoxyphenylsulfonyl)glycyl hydroxamic acid (NNGH), a broad-spectrum inhibitor of matrix metalloproteinases, was used as positive control. […] In parallel, MMP-8 inhibition assays were also conducted using the same concentrations of compounds 3b, 3c, 3d, and 3g.
It should be emphasized that these assays were performed as single-point screening experiments, optimized for rapid qualitative assessment rather than full kinetic characterization. Consequently, the observed differences in activity between MMP-13 and MMP-8 are indicative trends supporting the selectivity predicted by computational studies, including docking, molecular dynamics simulations, and binding free energy calculations, rather than providing definitive quantitative evidence.
The inhibitory activity of the tested compounds was evaluated using the MMP-13 inhibitor screening assay kit (fluorometric) (Abcam, ab139451). The assay performed according to the manufacturer’s instructions. The designed compounds were tested at concentrations ranging from 1.8 to 4.6 µM, to determine their inhibitory activity. […]

[2] = MTT assay, NHDF; assay type: cell-based, human; conditions: human, NHDF cells (normal human dermal fibroblasts), 0.004 mM to 0.5 mM
Description: As mentioned earlier, MMP-13 is overexpressed and functionally significant in various cancers, including melanoma and colorectal carcinoma. For instance, high MMP-13 levels have been correlated with metastasis and poor survival in melanoma patients. In colorectal cancer, elevated MMP-13 activity has been observed in tumors compared to normal mucosa, and its expression is associated with a worse prognosis. Based on computational studies, four out of the eleven designed compounds showing the most promising predicted activity against MMP-13 were selected for biological evaluation. For the MTT assay, NHDF cells were used as the healthy reference cell line, while A375 (melanoma) and HT-29 (colorectal adenocarcinoma cancer) cell lines were chosen as cancer models.
Experiments were conducted using two cancer cell lines and, as a control, a normal human dermal fibroblasts (NHDF; ATCC PCS-201-012). The A375 cell line (human melanoma, ATCC CRL-1619), and HT-29 cell line (human colorectal adenocarcinoma, ATCC HTB-38) were cultured in DMEM (Dulbecco’s Modified Eagle Medium, Institute of Immunology and Experimental Therapy (IITD), Wrocław, Poland) supplemented with 1% antibiotics (10 U/mL penicillin and 10 µg/mL streptomycin, Sigma-Aldrich, St Louis, MO, USA), 1% glutamine (Sigma-Aldrich, St Louis, MO, USA) and 10% fetal bovine serum (FBS, Gibco, Grand Island, NY, USA). For NHDF cultures, α-MEM (α-Minimum Essentials Medium, Institute of Immunology and Experimental Therapy (IITD), Poland) was used with the same supplement combination as for the cancer cell lines. All cells were maintained in a humidified incubator (INCO 105, Memmert GmbH, Schwabach, Germany) at 37 °C with 5% CO2 and 95% humidity. Cells were passaged routinely by trypsinization (twice a week). For the MTT (3-(4,5-simethylthiazol-2,5-diphenyltetrazolinum bromide), Sigma, St. Louis, MO, USA) assay, cells were used after 2–4 passages, when they reached approximately 80% confluence.
All tested compounds were dissolved in DMSO to obtain stock solutions with a final concentration of 50 mM (3a, 3b, 3e), 40 mM (3f, 3g, 3i, 3j), and 35 mM (3h, 3k). […] In the next step, 10 µL of each stock solution was added to 990 µL of supplemented medium.
The MTT assay was performed in 96-well plates, with a seeding density of 1 × 10^4 cells per well. All cell lines were incubated for 24 h in their respective media: α-MEM for (NHDF cells) and DMEM for (A375 and HT-29) cells. After incubation, the medium was removed and replaced with fresh medium containing the tested compounds at concentrations ranging from 0.004 mM to 0.5 mM. […] Absorbance was measured spectrophotometrically at a wavelength of 570 nm using a BioTek SYNERGY H1 microplate reader (Agilent, Santa Clara, CA, USA).

Structure (SMILES)	MMP-13 activity inhibition [1]	viability at 24 h [2] [%]
Cc1cc(C)c(C(=O)NCC(=O)NCc2ccccc2)c(S)n1 [Compound 3g, 4,6-dimethyl-N-[2-(benzylamino)-2-oxoethyl]-2-sulfanylpyridine-3-carboxamide]	most pronounced inhibitory effect	
Cc1cc(C)c(C(=O)NCC(=O)NCc2ccccc2Cl)c(S)n1 [Compound 3d, N-{2-[(2-chlorobenzyl)amino]-2-oxoethyl}-4,6-dimethyl-2-sulfanylpyridine-3-carboxamide]		> 63
